Measured values taken from patent publication US7723064B2, “Methods for monitoring patients for efficacy of an antiplatelet therapy regimen” (Siemens Healthcare Diagnostics Inc., priority 2004, dated 2010).

Experiments:
[1] = test system: CD62P (P-selectin) expression on platelets; experiment: Platelet CD62P (P-selectin) expression by fluorescence flow cytometry in whole blood of patients before and after anti-platelet therapy and PTCA; assay type: in vivo, human; conditions: for mean CD62P expression (percent positive events): Clopidogrel patients n=29, 300 mg loading dose and PTCA, baseline 9.5±3.3%; for mean CD62P expression (percent positive events) / CD62P percent positive expression / CD62P expression (percent positive events): mean±SE; for CD62P percent positive expression: patients with high baseline platelet activation, baseline 23.4±6.6%, p<0.01; for CD62P expression (percent positive events): abciximab patients n=15, 0.25 mg/kg bolus plus infusion and PTCA, baseline 9.3±4.0%
Procedure: (§1) Patients. A total of 44 patients who underwent elective percutaneous coronary angioplasty and stenting were evaluated. The study was approved by the institutional committee on human research. Patients were enrolled in the study after informed consent had been obtained. Their baseline variables including age, gender, smoking history, risk factors, antecedents and medication were documented. These patients received either a loading dose of Clopidogrel (300 mg) before the beginning of the PTCA procedure followed by 75 mg daily for 1 month or intravenously a 0.25 mg/kg, bolus of Abciximab before the beginning of the PTCA procedure followed by a 0.125 μg/kg/mn infusion for 12 h.
(§2) Blood collection. Blood was drawn with a 21-gauge needle into EDTA (5 mM) tubes, mixed immediately with the anticoagulant and avoiding frothing during the mixing procedure. The first 1-2 ml of blood were discarded to avoid the effects of traces of thrombin generated during venipuncture. Serum was collected for CRP measurements. Whole blood specimens for measurement of the ADVIA® 120 Hematology System platelet parameters and flow cytometry analysis were taken prior to baseline, 2 hours, and 24 hours after administration of anti-platelet therapy and PTCA. For platelet activation measurements, all specimens were processed within 1 h after blood collection.
Fluorescence flow cytometry analysis. Whole blood samples were fixed with methanol-free paraformaldehyde (final concentration 0.5%). Fixed blood (5 μl) was incubated at room temperature for 15 min in the dark with monoclonal antibody CD61a-FITC. (10 μl) to identify the platelets and CD62P-PE (10 μl) to measure the expression of P-selectin. Platelets labeled with FITC or PE-conjugated isotype control antibody were used as control for nonspecific staining.
Samples were diluted to 1 ml with PBS. FACScan calibration and compensation were performed as recommended by the manufacturer. Five thousand (5,000) CD61a positive events were acquired on the FACScan flow cytometer (Becton Dickinson, Franklin Lakes, N.J.) equipped with Lysis II software. Data analysis was performed using a threshold based on the FITC-fluorescence correlating to the platelet specific binding of CD61a-FITC antibodies. A gate was drawn around the fluorescent platelet population. The CD61a-FITC labeled platelets that were also positive for PE-conjugated activation marker antibody (CD62P) was quantitated and presented as percentage of positive events.
(§3) Patients. A total of 44 patients who underwent elective percutaneous coronary angioplasty and stenting were evaluated Patients were enrolled in the study after informed consent had been obtained. Their baseline variables including age, gender, smoking history and medication were documented. The treatments were assigned based on the angiographic characteristics. Patients with presence of thrombus and high risk vessel disease were assigned to Abciximab. Two thirds (n=29) of patients received a loading dose of Clopidogrel (300 mg) before the beginning of the PTCA procedure followed by 75 mg daily for 1 month. One third (n=15) of patients received a 0.25 mg/kg bolus of Abciximab intravenously before the beginning of the PTCA procedure followed by a 0.125 μg/kg/min infusion for 12 h. These patients also received Clopidogrel a designated number of hours after PTCA.
Collection of blood. Blood was drawn with a 21-gauge needle into EDTA (5 mM) tubes, mixed immediately with the anticoagulant, and avoiding frothing during the mixing procedure. The first 1-2 ml of blood were discarded to avoid the effects and traces of thrombin generated during venipuncture. Universal precautions were taken at all times during phlebotomy. […]

[2] = test system: platelets (platelet activation); experiment: Mean platelet component concentration (MPC, platelet density) on the ADVIA 120 Hematology System in whole blood of patients before and after anti-platelet therapy and PTCA; assay type: in vivo, human; conditions: for mean MPC level: Clopidogrel patients n=29, baseline 27.8±0.4 g/dL; for mean MPC level / MPC level: mean±SE; for MPC level: abciximab patients n=15, baseline 28.0±0.3 g/dL
Procedure: as §1, §2
Bayer ADVIA 120 automated hematology system platelet density measurement. The two-dimensional platelet method is based on the analysis of platelets in whole blood by flow cytometry using the ADVIA 120. The system was standardized and calibrated as per the manufacturer's instructions. The ADVIA 120 Hematology System was quality-controlled using TESTpoint Hematology control reagents (Bayer HealthCare, LLC, Tarrytown, N.Y.). The whole blood specimens anticoagulated with EDTA were processed within 1 h after specimen collection. […] See Macey M. G. et al., Cytometry (1999) 38:250-255; Chapman E. S. et al., Thromb. Haemost. (2003) 89:1004-1015; Ahnadi C. E. et al., Thromb. Haemost (2003) 90:940-948. In this study, MPC determinations were acquired as a measure of platelet activation at baseline, 2 hours, and 24 hours after anti-platelet drug therapy.
as §3
Collection of blood. Blood was drawn with a 21-gauge needle into EDTA (5 mM) tubes, mixed immediately with the anticoagulant, and avoiding frothing during the mixing procedure. The first 1-2 ml of blood were discarded to avoid the effects and traces of thrombin generated during venipuncture. Universal precautions were taken at all times during phlebotomy. Whole blood specimens for measurement of the ADVIA 120 System platelet parameters and CD62P-PE flow cytometry analysis were taken prior to baseline, 2 h, 5 h, and 24 h after administration of a loading charge of Clopidogrel and percutaneous transluminal coronary angioplasty (PTCA), and prior to, 10 min, 2 h, and 24 h after administration of the Abciximab bolus and PTCA. All specimens were processed within 1 h after blood collection.
Bayer ADVIA 120 Automated Hematology System platelet density measurement. […]

[3] = test system: platelet activation markers CD62, CD63, and PAC-1; conditions: after stimulation with ADP or thrombin; healthy subjects and patients after myocardial infarction; cited from earlier work

CC(=O)Oc1ccccc1C(=O)O [aspirin]
platelet inhibition effect ([1]; patients on aspirin therapy before admission, by the classic (CD62P) or new (MPC) platelet activation measurements): not demonstrated

COC(=O)[C@H](c1ccccc1Cl)N1CCc2sccc2C1 [Clopidogrel]
mean CD62P expression (percent positive events) ([1]; 2 h): 3.1±1.8%
mean CD62P expression (percent positive events) ([1]; 5 h): 1.2±0.7%
mean CD62P expression (percent positive events) ([1]; 24 h): 1.8±1.1%
platelet activation as determined by both CD62P decrease and increasing MPC ([1]; group of patients with the greatest baseline platelet activation): significant reduction
CD62P percent positive expression ([1]; 2 h): 2.0±1.0%
CD62P percent positive expression ([1]; 5 h): 0.3±0.1%
CD62P percent positive expression ([1]; 24 h): 1.5±0.5%
mean MPC level ([2]; 2 h): 28.4 ± 0.3 g/dL
mean MPC level ([2]; 5 h): 28.9 ± 0.2 g/dL
mean MPC level ([2]; 24 h): 28.7 ± 0.2 g/dL
MPC value ([2]; patients with high baseline platelet activation, 2 h, baseline 25.7±0.8 g/dL, p<0.01): 28.0 ± 0.5 g/dL
MPC value ([2]; patients with high baseline platelet activation, 5 h, baseline 25.7±0.8 g/dL, p<0.01): 28.8 ± 0.3 g/dL
MPC value ([2]; patients with high baseline platelet activation, 24 h, baseline 25.7±0.8 g/dL, p<0.01): 28.4 ± 0.3 g/dL
expression of platelet activation markers CD62, CD63, and PAC-1 [3]: suppresses expression

B1: Abciximab (antibody, chains of the INN, looked up, V domains shown)
VH: EVQLQQSGTVLARPGASVKMSCEASGYTFTNYWMHWVKQRPGQGLEWIGAIYPGNSDTSYIQKFKGKAKLTAVTSTTSVYMELSSLTNEDSAVYYCTLYDGYYVFAYWGQGTLVTVSA
VL: EIVLTQSPVTLSVTPGDSVSLSCRASRDISNNLHWFQQTSHESPRLLIKYASQSMSGIPSRFSGSGSGTDFTLSINSVETEDFGMYFCQQTNSWPYTFGGGTKLEIK
modifications: Fab
notes: the monoclonal antibody, abciximab
CD62P expression (percent positive events) ([1]; 2 h): 7.9±5.4%
CD62P expression (percent positive events) ([1]; 24 h): 0.7±0.3%
CD62P-PE value ([1]; one patient, 2 hours after Abciximab and angioplasty, baseline 4.2%, complications of pacemaker installation): 75%
MPC level ([2]; 10 min): 27.9 ± 0.3 g/dL
MPC level ([2]; 2 h): 28.0 ± 0.4 g/dL
MPC level ([2]; 24 h): 28.4 ± 0.2 g/dL
MPC value ([2]; one patient, 2 hours after Abciximab and angioplasty, baseline 28.3 g/dL, complications of pacemaker installation): 22.8 g/dL
